# Source: patent publication US20240261258A1, “Presurgical Perineural Administration of Resiniferatoxin For Reduction of Post-Operative Pain” (Sorrento Therapeutics, Inc., priority 2021, published 2024)
# What was measured:
# Assay type in all cases: in vivo, dog
# [1] = tested on: stifle of dogs after TPLO; assay: Radiographic, CT and MRI evaluation of bone healing; settings: for Pattern of healing N (no findings), No. of Dogs / Pattern of healing S (soft tissue swelling with normal bone healing), No. of Dogs / Pattern of healing S&B (soft tissue swelling and delayed bone healing), No. of Dogs: 4 dogs
# Experimental: Radiographs of the stifle were performed before surgery, the day after surgery, at day 28, and at day 56. Dogs were sedated to allow for correct positioning of the leg and to minimize stress from handling. Standardized TPLO views (lateral and caudal-cranial) were acquired. An MRI and CT were also performed on the operated leg after the animals were euthanized and the surgical plate was removed (day 56).
# Orthogonal plane radiographs of the stifle were obtained for all dogs at all timepoints. After euthanasia, CT was obtained in 11 of the 14 dogs and MRI in all dogs. Metal artifact due to the presence of a broken screw prevented the evaluation of one MR study. Soft tissues could not be reliably assessed due to disruption secondary to removal of the plate. There was no evidence of implant failure or suboptimal osteotomy repair in any dog. Upon review of all imaging modalities, three patterns of healing emerged (Table 9a).
# The delay of bone healing refers to a slower bone healing process as compared to the findings in the rest of the dogs in this study. This is not to be considered as an absolute delayed bone healing since the dogs were only enrolled in the study for 56 days
# [2] = tested on: SP nerve axons of sciatic and femoral nerves; assay: Quantification of SP immunopositive nerve fibers; settings: for Density of SP nerve axons in the ipsilateral femoral nerve: not statistically significant
# Experimental: FIGS. 2A-J show density of SP nerve axons in representative confocal images of ipsilateral (left; A-D) and contralateral (right; E-H) sciatic nerve from dogs post-TPLO and after different treatment and doses of RTX. Each bar represents the mean±SEM. Data were analyzed by one-way ANOVA followed by Tukey post hoc test; *p<0.05. FIGS. 2I-J are bar graphs of the density of SP nerve axons (density of nerve fibers in mm/mm3) in ipsilateral (I), and contralateral (J) sciatic nerves as measured in n subjects in each group.
# FIGS. 4A-J show the density of SP-immunoreactive axons in representative confocal images showing the presence of […] axons from ipsilateral (A-D) and contralateral (E-H) canine femoral nerves from dogs post-TPLO and after treatment of RTX. Each bar represents the mean±SEM. FIGS. 4I-J are bar graphs of the density of SP nerve axons (density of nerve fibers in mm/mm3) in ipsilateral (I), and contralateral (J) femoral nerves as measured in n subjects in each group.
# FIG. 4 illustrates the effect of RTX on SP density in nerve fibers innervating the ipsilateral (FIG. 4A-D) and contralateral (FIG. 4E-H) femoral nerves from dogs post-TPLO.
# [3] = tested on: healthy dogs undergoing TPLO surgery; assay: Algometer measurements on the surgical site
# Experimental: The injection site of RTX or local anesthetic was evaluated by visual examination (normal, red, swollen) and palpation (no pain, mild, severe). The surgical site was evaluated by visual examination (normal, red, swollen) and with the aid of an algometer. With the dog in lateral recumbency, the tip of the algometer was placed on the surgical site and pressure was manually applied until the animal moved the leg. During the baseline data collection, several measurements were taken until 3 measurements were within ±1 Newton (N). The number recorded corresponded to the average of these 3 values. After surgery, the force was applied only once. Data were collected from both the left (treated) and the right (non-treated) hindlimbs.
# Mean plus or minus the standard deviation (±SD) force in Newton was recorded at the pressure applied on the surgical incision when the subject moved the leg from the algometer. The left side was the treated stifle.
smiles,measurement,setting,value
"C=C(C)[C@]12C[C@@H](C)[C@@]34O[C@](Cc5ccccc5)(O[C@@H]1[C@@H]3C=C(COC(=O)Cc1ccc(O)c(OC)c1)C[C@]1(O)C(=O)C(C)=C[C@@H]41)O2 [RTX, resiniferatoxin]","Pattern of healing N (no findings), No. of Dogs",[1]; Group 1 (high dose),1
same,"Pattern of healing S (soft tissue swelling with normal bone healing), No. of Dogs",[1]; Group 1 (high dose),2
same,"Pattern of healing S&B (soft tissue swelling and delayed bone healing), No. of Dogs",[1]; Group 1 (high dose),1
same,"Pattern of healing N (no findings), No. of Dogs",[1]; Group 2 (low dose),2
same,"Pattern of healing S (soft tissue swelling with normal bone healing), No. of Dogs",[1]; Group 2 (low dose),1
same,"Pattern of healing S&B (soft tissue swelling and delayed bone healing), No. of Dogs",[1]; Group 2 (low dose),1
same,"Pattern of healing N (no findings), No. of Dogs",[1]; Group 3 (local),1
same,"Pattern of healing S (soft tissue swelling with normal bone healing), No. of Dogs",[1]; Group 3 (local),1
same,"Pattern of healing S&B (soft tissue swelling and delayed bone healing), No. of Dogs",[1]; Group 3 (local),2
same,Effect on the bone healing process,[1]; distribution of healing patterns among the treatment groups,did not adversely affect the bone healing process
same,Density of SP nerve axons in the contralateral sciatic nerve vs control treatment,"[2]; RTX treated groups, p=0.9122, p=0.9995, p=0.9971",did not affect
same,Density of SP nerve axons in the contralateral femoral nerve,"[2]; RTX treatment, p=0.9907, p=0.8812, p=0.9066",did not have an effect
same,Density of SP axons of the ipsilateral sciatic nerve vs control treatment,"[2]; local administration (50 μg), p=0.0155",statistically significant reduction
same,Density of SP axons of the ipsilateral sciatic nerve vs control treatment,"[2]; peri-neural 3.12 μg per nerve (6.25 μg total), p=0.0335",statistically significant reduction
same,Density of SP nerve axons in the ipsilateral femoral nerve,"[2]; peri-neural 3.12 μg per nerve, p=0.8519",marked trend in reducing density
same,Density of SP axons of the ipsilateral sciatic nerve vs control treatment,"[2]; peri-neural 12.5 μg per nerve (25 μg total), p=0.0112",statistically significant reduction
same,Density of SP nerve axons in the ipsilateral femoral nerve,"[2]; peri-neural 12.5 μg per nerve, p=0.1216",marked trend in reducing density
same,Algometer force on surgical site when the dog moved the leg (mean ± SD),"[3]; Baseline, L (treated) hindlimb, Group 1 High, 25 μg",7.4 ± 3.1 Newton
same,Algometer force on surgical site when the dog moved the leg (mean ± SD),"[3]; Baseline, L (treated) hindlimb, Group 2 Low, 6.25 μg",6.2 ± 2.3 Newton
same,Algometer force on surgical site when the dog moved the leg (mean ± SD),"[3]; Baseline, L (treated) hindlimb, Group 3 Local, 50 μg",5.7 ± 2.5 Newton
same,Algometer force on surgical site when the dog moved the leg (mean ± SD),"[3]; Baseline, R (non-treated) hindlimb, Group 1 High, 25 μg",7.1 ± 3.7 Newton
same,Algometer force on surgical site when the dog moved the leg (mean ± SD),"[3]; Baseline, R (non-treated) hindlimb, Group 2 Low, 6.25 μg",7.0 ± 2.3 Newton
same,Algometer force on surgical site when the dog moved the leg (mean ± SD),"[3]; Baseline, R (non-treated) hindlimb, Group 3 Local, 50 μg",8.5 ± 2.4 Newton
same,Algometer force on surgical site when the dog moved the leg (mean ± SD),"[3]; Day 1, L (treated) hindlimb, Group 1 High, 25 μg",7.4 ± 5.9 Newton
same,Algometer force on surgical site when the dog moved the leg (mean ± SD),"[3]; Day 1, L (treated) hindlimb, Group 2 Low, 6.25 μg",5.0 ± 2.1 Newton
same,Algometer force on surgical site when the dog moved the leg (mean ± SD),"[3]; Day 1, L (treated) hindlimb, Group 3 Local, 50 μg",9.2 ± 2.1 Newton
same,Algometer force on surgical site when the dog moved the leg (mean ± SD),"[3]; Day 1, R (non-treated) hindlimb, Group 1 High, 25 μg",6.1 ± 2.3 Newton
same,Algometer force on surgical site when the dog moved the leg (mean ± SD),"[3]; Day 1, R (non-treated) hindlimb, Group 2 Low, 6.25 μg",3.8 ± 1.9 Newton
same,Algometer force on surgical site when the dog moved the leg (mean ± SD),"[3]; Day 1, R (non-treated) hindlimb, Group 3 Local, 50 μg",9.6 ± 6.3 Newton
same,Algometer force on surgical site when the dog moved the leg (mean ± SD),"[3]; Day 2, L (treated) hindlimb, Group 1 High, 25 μg",5.4 ± 3.3 Newton
same,Algometer force on surgical site when the dog moved the leg (mean ± SD),"[3]; Day 2, L (treated) hindlimb, Group 2 Low, 6.25 μg",5.0 ± 2.7 Newton
same,Algometer force on surgical site when the dog moved the leg (mean ± SD),"[3]; Day 2, L (treated) hindlimb, Group 3 Local, 50 μg",8.5 ± 1.5 Newton
same,Algometer force on surgical site when the dog moved the leg (mean ± SD),"[3]; Day 2, R (non-treated) hindlimb, Group 1 High, 25 μg",4.9 ± 2.1 Newton
same,Algometer force on surgical site when the dog moved the leg (mean ± SD),"[3]; Day 2, R (non-treated) hindlimb, Group 2 Low, 6.25 μg",3.7 ± 2.0 Newton
same,Algometer force on surgical site when the dog moved the leg (mean ± SD),"[3]; Day 2, R (non-treated) hindlimb, Group 3 Local, 50 μg",6.5 ± 3.5 Newton
same,Algometer force on surgical site when the dog moved the leg (mean ± SD),"[3]; Day 3, L (treated) hindlimb, Group 1 High, 25 μg",5.3 ± 1.5 Newton
same,Algometer force on surgical site when the dog moved the leg (mean ± SD),"[3]; Day 3, L (treated) hindlimb, Group 2 Low, 6.25 μg",5.9 ± 4.2 Newton
same,Algometer force on surgical site when the dog moved the leg (mean ± SD),"[3]; Day 3, L (treated) hindlimb, Group 3 Local, 50 μg",7.7 ± 2.0 Newton
same,Algometer force on surgical site when the dog moved the leg (mean ± SD),"[3]; Day 3, R (non-treated) hindlimb, Group 1 High, 25 μg",7.1 ± 1.8 Newton
same,Algometer force on surgical site when the dog moved the leg (mean ± SD),"[3]; Day 3, R (non-treated) hindlimb, Group 2 Low, 6.25 μg",6.3 ± 1.5 Newton
same,Algometer force on surgical site when the dog moved the leg (mean ± SD),"[3]; Day 3, R (non-treated) hindlimb, Group 3 Local, 50 μg",6.5 ± 3.4 Newton
same,Algometer force on surgical site when the dog moved the leg (mean ± SD),"[3]; Day 14, L (treated) hindlimb, Group 1 High, 25 μg",5.3 ± 3.9 Newton
same,Algometer force on surgical site when the dog moved the leg (mean ± SD),"[3]; Day 14, L (treated) hindlimb, Group 2 Low, 6.25 μg",2.9 ± 1.2 Newton
same,Algometer force on surgical site when the dog moved the leg (mean ± SD),"[3]; Day 14, L (treated) hindlimb, Group 3 Local, 50 μg",6.6 ± 4.2 Newton
same,Algometer force on surgical site when the dog moved the leg (mean ± SD),"[3]; Day 14, R (non-treated) hindlimb, Group 1 High, 25 μg",5.0 ± 2.3 Newton
same,Algometer force on surgical site when the dog moved the leg (mean ± SD),"[3]; Day 14, R (non-treated) hindlimb, Group 2 Low, 6.25 μg",5.2 ± 1.5 Newton
same,Algometer force on surgical site when the dog moved the leg (mean ± SD),"[3]; Day 14, R (non-treated) hindlimb, Group 3 Local, 50 μg",4.7 ± 3.5 Newton
same,Algometer force on surgical site when the dog moved the leg (mean ± SD),"[3]; Day 28, L (treated) hindlimb, Group 1 High, 25 μg",5.8 ± 2.4 Newton
same,Algometer force on surgical site when the dog moved the leg (mean ± SD),"[3]; Day 28, L (treated) hindlimb, Group 2 Low, 6.25 μg",4.5 ± 3.9 Newton
same,Algometer force on surgical site when the dog moved the leg (mean ± SD),"[3]; Day 28, L (treated) hindlimb, Group 3 Local, 50 μg",4.4 ± 2.6 Newton
same,Algometer force on surgical site when the dog moved the leg (mean ± SD),"[3]; Day 28, R (non-treated) hindlimb, Group 1 High, 25 μg",4.6 ± 3.5 Newton
same,Algometer force on surgical site when the dog moved the leg (mean ± SD),"[3]; Day 28, R (non-treated) hindlimb, Group 2 Low, 6.25 μg",2.7 ± 2.1 Newton
same,Algometer force on surgical site when the dog moved the leg (mean ± SD),"[3]; Day 28, R (non-treated) hindlimb, Group 3 Local, 50 μg",5.0 ± 1.9 Newton
same,Algometer force on surgical site when the dog moved the leg (mean ± SD),"[3]; Day 56, L (treated) hindlimb, Group 1 High, 25 μg",7.0 ± 3.1 Newton
same,Algometer force on surgical site when the dog moved the leg (mean ± SD),"[3]; Day 56, L (treated) hindlimb, Group 2 Low, 6.25 μg",4.9 ± 1.8 Newton
same,Algometer force on surgical site when the dog moved the leg (mean ± SD),"[3]; Day 56, L (treated) hindlimb, Group 3 Local, 50 μg",10.9 ± 8.7 Newton
same,Algometer force on surgical site when the dog moved the leg (mean ± SD),"[3]; Day 56, R (non-treated) hindlimb, Group 1 High, 25 μg",6.3 ± 1.2 Newton
same,Algometer force on surgical site when the dog moved the leg (mean ± SD),"[3]; Day 56, R (non-treated) hindlimb, Group 2 Low, 6.25 μg",5.7 ± 1.7 Newton
same,Algometer force on surgical site when the dog moved the leg (mean ± SD),"[3]; Day 56, R (non-treated) hindlimb, Group 3 Local, 50 μg",9.0 ± 4.6 Newton
